Here are results for 13 compounds from patent publication US9227973B2, “Pyridine CGRP receptor antagonists” (Merck Sharp & Dohme Corp., priority 2012, dated 2016).

For experiment [1], the target named is T1, recombinant human CL receptor/RAMP1 (CGRP receptor) (Homo sapiens (Human), UniProt O60894+Q16602). As to the kind of experiment: Recombinant receptor functional assay (Assay C), cAMP HTRF. In kind it is cell-based. To be noted: Assay C: HEK 293 cells, 3,500 cells/well, human α-CGRP 1 nM, cAMP inflection point. As for the experimental part:
Human RAMP1 (Genbank accession number AJ001014) was subcloned into the expression vector pIRESpuro2 (BD Biosciences Clontech) as a 5′NheI and 3′NotI fragment. […] Cells were subcultured by treatment with 0.25% trypsin with 0.1% EDTA in HBSS. Stable cell line generation was accomplished by co-transfecting 10 μg of DNA with 30 μg Lipofectamine 2000 (Invitrogen) in 75 cm^2 flasks. CL receptor and RAMP1 expression constructs were co-transfected in equal amounts. Twenty-four hours after transfection the cells were diluted and selective medium (growth medium+300 μg/mL hygromycin and 1 μg/mL puromycin) was added the following day. A clonal cell line was generated by single cell deposition utilizing a FACS Vantage SE (Becton Dickinson). Growth medium was adjusted to 150 μg/mL hygromycin and 0.5 μg/mL puromycin for cell propagation.

Experiment [2] deals with T1, recombinant human CL receptor/RAMP1 (CGRP receptor). As to the kind of experiment: Recombinant receptor functional assay (Assay B), cAMP HTRF. In kind it is cell-based. To be noted: Assay B: HEK 293 cells, 2,000 cells/well, human α-CGRP 1.2 nM, cAMP inflection point. The method, then: RECOMBINANT RECEPTOR: Human CL receptor (Genbank accession number L76380) was subcloned into the expression vector pIREShyg2 (BD Biosciences Clontech) as a 5′NheI and 3′ PmeI fragment. Human RAMP1 (Genbank accession number AJ001014) was subcloned into the expression vector pIRESpuro2 (BD Biosciences Clontech) as a 5′NheI and 3′NotI fragment. HEK 293 cells (human embryonic kidney cells; ATCC #CRL-1573) were cultured in DMEM with 4.5 g/L glucose, 1 mM sodium pyruvate and 2 mM glutamine supplemented with 10% fetal bovine serum (FBS), 100 units/mL penicillin and […] streptomycin, and maintained at 37° C. and 95% humidity. Cells were subcultured by treatment with 0.25% trypsin with 0.1% EDTA in HBSS. Stable cell line generation was accomplished by co-transfecting 10 μg of DNA with 30 μg Lipofectamine 2000 (Invitrogen) in 75 cm^2 flasks. CL receptor and RAMP1 expression constructs were co-transfected in equal amounts. Twenty-four hours after transfection the cells were diluted and selective medium (growth medium+300 μg/mL hygromycin and 1 μg/mL puromycin) was added the following day. A clonal cell line was generated by single cell deposition utilizing a FACS Vantage SE (Becton Dickinson). Growth medium was adjusted to 150 μg/mL hygromycin and 0.5 μg/mL puromycin for cell propagation.
RECOMBINANT RECEPTOR FUNCTIONAL ASSAY (Assay B): Cells were resuspended in DMEM/F12 (Hyclone) supplemented with 1 g/L BSA and 300 μM isobutyl-methylxanthine. Cells were then plated in a 384-well plate (Proxiplate Plus 384; 509052761; Perkin-Elmer) at a density of 2,000 cells/well and incubated with antagonist for 30 min at 37° C. Human α-CGRP was then added to the cells at a final concentration of 1.2 nM and incubated an additional 20 min at 37° C. Following agonist stimulation, the cells were processed for cAMP determination using the two-step procedure according to the manufacturer's recommended protocol (HTRF cAMP dynamic 2 assay kit; 62AM4PEC; Cisbio). Raw data were transformed into concentration of cAMP using a standard curve then dose response curves were plotted and inflection point (IP) values were determined

The structures appear in SMILES notation.

T1 sequence (Q16602 23-461): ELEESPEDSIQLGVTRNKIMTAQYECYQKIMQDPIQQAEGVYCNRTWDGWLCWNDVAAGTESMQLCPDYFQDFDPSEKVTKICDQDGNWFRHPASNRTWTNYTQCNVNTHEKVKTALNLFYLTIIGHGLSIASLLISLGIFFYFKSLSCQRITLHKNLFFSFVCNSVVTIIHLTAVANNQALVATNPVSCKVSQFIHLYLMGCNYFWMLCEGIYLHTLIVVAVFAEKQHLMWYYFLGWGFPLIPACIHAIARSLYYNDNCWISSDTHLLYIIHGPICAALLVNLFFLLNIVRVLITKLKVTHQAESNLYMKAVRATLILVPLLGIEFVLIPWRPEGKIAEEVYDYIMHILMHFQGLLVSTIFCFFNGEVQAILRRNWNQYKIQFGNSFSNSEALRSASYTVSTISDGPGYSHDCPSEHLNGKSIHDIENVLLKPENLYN
T1 sequence (O60894 27-148): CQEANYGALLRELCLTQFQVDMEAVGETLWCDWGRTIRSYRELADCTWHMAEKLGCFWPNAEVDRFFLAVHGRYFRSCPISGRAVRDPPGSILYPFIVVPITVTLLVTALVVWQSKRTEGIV

Turning to `O=C(NC1COC(c2ccccc2)Cc2cccnc21)c1cnc2c(c1)C[C@@]1(C2)C(=O)Nc2ncccc21` (single isomer, unassigned; isomer c) [9 isomer C], the IC50 in experiment [1] stood at 1.1 µM.

Turning to `N[C@H]1c2cccnc2[C@H](NC(=O)c2cnc3c(c2)C[C@@]2(C3)C(=O)Nc3ncccc32)CC[C@H]1c1cccc(F)c1F` [Example 3, (6S)—N-[(5R,6S,9R)-5-Amino-6-(2,3-difluorophenyl)-6,7,8,9-tetrahydro-5H-cyclohepta[b]pyridin-9-yl]-2′-oxo-1′,2′,5,7-tetrahydrospiro[cyclopenta[b]pyridine-6,3′-pyrrolo[2,3-b]pyridine]-3-carboxamide], the concentration for half-maximal inhibition (IC50) in experiment [2] amounted to 0.0063 µM.

For the compound `O=C(NC1CC(c2ccccc2)Cc2cccnc21)c1cnc2c(c1)C[C@]1(C2)C(=O)Nc2ncccc21` (single isomer, unassigned; isomer b) [5 isomer B], the IC50 in experiment [2] came to 4.6 µM.

For the compound `N[C@@H]1c2cccnc2[C@@H](NC(=O)c2cnc3c(c2)C[C@@]2(C3)C(=O)Nc3ncccc32)CC[C@H]1c1cccc(F)c1F` [Example 2, (6S)—N-[(5S,6S,9S)-5-Amino-6-(2,3-difluorophenyl)-6,7,8,9-tetrahydro-5H-cyclohepta[b]pyridin-9-yl]-2′-oxo-1′,2′,5,7-tetrahydrospiro[cyclopenta[b]pyridine-6,3′-pyrrolo[2,3-b]pyridine]-3-carboxamide], the IC50 in experiment [2] came out at 0.29 µM.

In the case of `N[C@@H]1c2cccnc2[C@H](NC(=O)c2cnc3c(c2)C[C@@]2(C3)C(=O)Nc3ncccc32)CC[C@H]1c1cccc(F)c1F` [Example 1, (6S)—N-[(5S,6S,9R)-5-Amino-6-(2,3-difluorophenyl)-6,7,8,9-tetrahydro-5H-cyclohepta[b]pyridin-9-yl]-2′-oxo-1′,2′,5,7-tetrahydrospiro[cyclopenta[b]pyridine-6,3′-pyrrolo[2,3-b]pyridine]-3-carboxamide], the half-maximal inhibitory concentration (IC50) in experiment [2] turned out to be 0.00093 µM.

With `O=C(NC1CC(c2ccccc2)Cc2cccnc21)c1cnc2c(c1)C[C@@]1(C2)C(=O)Nc2ncccc21` (single isomer, unassigned; isomer a) [5 isomer A], in experiment [2], the IC50 amounted to 0.022 µM.

On to `O=C(NC1CC(c2ccccc2)Cc2cccnc21)c1cnc2c(c1)C[C@@]1(C2)C(=O)Nc2ncccc21` (single isomer, unassigned; isomer a) [6 isomer A], for which the IC50 in experiment [2] worked out at 0.078 µM.

Take `O=C(NC1COC(c2ccccc2)Cc2cccnc21)c1cnc2c(c1)C[C@@]1(C2)C(=O)Nc2ncccc21` (single isomer, unassigned; isomer b) [9 isomer B]: the IC50 in experiment [1] worked out at 1.1 µM.

Take `O=C(N[C@H]1CC[C@H](c2cccc(F)c2F)Cc2cccnc21)c1cnc2c(c1)C[C@@]1(C2)C(=O)Nc2ncccc21` [Example 7A, (S)—N-((6S,9S)-6-(2,3-difluorophenyl)-6,7,8,9-tetrahydro-5H-cyclohepta[b]pyridin-9-yl)-2′-oxo-1′,2′,5,7-tetrahydrospiro[cyclopenta[b]pyridine-6,3′-pyrrolo[2,3-b]pyridine]-3-carboxamide]: the concentration for half-maximal inhibition (IC50) in experiment [2] worked out at 0.38 µM.

For `O=C(NC1CC(c2ccccc2)Cc2cccnc21)c1cnc2c(c1)C[C@]1(C2)C(=O)Nc2ncccc21` (single isomer, unassigned; isomer b) [6 isomer B], in experiment [2], the IC50 was determined as 0.15 µM.

With `O=C(N[C@@H]1CC[C@@H](c2cccc(F)c2F)Cc2cccnc21)c1cnc2c(c1)C[C@@]1(C2)C(=O)Nc2ncccc21` [Example 7B, (S)—N-((6R,9R)-6-(2,3-difluorophenyl)-6,7,8,9-tetrahydro-5H-cyclohepta[b]pyridin-9-yl)-2′-oxo-1′,2′,5,7-tetrahydrospiro[cyclopenta[b]pyridine-6,3′-pyrrolo[2,3-b]pyridine]-3-carboxamide], the IC50 in experiment [2] was found to be 0.0045 µM.

Consider `N[C@H]1c2cccnc2[C@@H](NC(=O)c2cnc3c(c2)C[C@@]2(C3)C(=O)Nc3ncccc32)CC[C@H]1c1cccc(F)c1F` [Example 4, (6S)—N-[(5R,6S,9S)-5-Amino-6-(2,3-difluorophenyl)-6,7,8,9-tetrahydro-5H-cyclohepta[b]pyridin-9-yl]-2′-oxo-1′,2′,5,7-tetrahydrospiro[cyclopenta[b]pyridine-6,3′-pyrrolo[2,3-b]pyridine]-3-carboxamide], for which the IC50 in experiment [2] is 0.065 µM.

Consider `O=C(NC1COC(c2ccccc2)Cc2cccnc21)c1cnc2c(c1)C[C@@]1(C2)C(=O)Nc2ncccc21` (single isomer, unassigned; isomer a) [9 isomer A], for which the half-maximal inhibitory concentration (IC50) in experiment [1] is 1.9 µM.
